Read-outs that look alike come from different tables or passages of the source.
Target: T1, ER (Homo sapiens, UniProt P03372)
T1 construct: host or cells: T47D and MCF7 human breast cancer cells
T1 sequence (P03372 1-595): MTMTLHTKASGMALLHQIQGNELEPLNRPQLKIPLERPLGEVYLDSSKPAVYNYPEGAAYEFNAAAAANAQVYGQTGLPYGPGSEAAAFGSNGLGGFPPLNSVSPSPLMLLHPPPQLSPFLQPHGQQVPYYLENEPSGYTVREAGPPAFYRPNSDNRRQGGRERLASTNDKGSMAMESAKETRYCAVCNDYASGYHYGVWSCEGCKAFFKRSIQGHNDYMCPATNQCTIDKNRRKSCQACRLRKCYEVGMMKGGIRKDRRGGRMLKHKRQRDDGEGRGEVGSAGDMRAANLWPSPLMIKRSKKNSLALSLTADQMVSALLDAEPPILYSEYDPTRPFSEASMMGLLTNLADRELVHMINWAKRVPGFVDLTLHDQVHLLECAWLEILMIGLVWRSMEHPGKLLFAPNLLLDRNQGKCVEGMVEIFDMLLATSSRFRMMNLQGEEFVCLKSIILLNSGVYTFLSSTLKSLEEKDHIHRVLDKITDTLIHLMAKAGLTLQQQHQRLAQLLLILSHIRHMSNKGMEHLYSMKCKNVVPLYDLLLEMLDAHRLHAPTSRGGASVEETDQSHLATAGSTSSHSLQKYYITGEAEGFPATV
Assay: ER degradation activity, in-cell western blot analysis in T47D cells
Assay type: cell-based
Method in brief: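 Human T47D cells (DMEM, 10% FBS) are dosed for 16 h with 0.5% DMSO final and probed with 680- and 800-dye secondary antibodies. Relative ER is calculated against vehicle and untreated wells.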

[1] = 16 hours, Table A does not say which cell line (T47D or MCF7), read-out: Potency (DC50)
[2] = compounds 16 hours, Table A does not say whether T47D or MCF7, read-out: Potency (DC50)

Compound: C[C@@H]1Cc2cc(O)ccc2[C@@H](c2c(F)cc(N3CCC(N4CC(CN5Cc6cc7c(cc6C5)C(=O)N(C5CCC(=O)NC5=O)C7=O)C4)CC3)cc2F)N1CC(F)F (stereo partly drawn) [E 46, 6-((1-(1-(4-((1S,3R)-2-(2,2-difluoroethyl)-6-hydroxy-3-methyl-1,2,3,4-tetrahydroisoquinolin-1-yl)-3,5-difluorophenyl)piperidin-4-yl)azetidin-3-yl)methyl)-2-(2,6-dioxopiperidin-3-yl)-6,7-dihydropyrrolo[3,4-f]isoindole-1,3(2H,5H)-dione]
- DC50 [1]: > 100 nM

Compound: O=C1CCC(N2Cc3cc4c(cc3C2=O)CN(CC(=O)N2CCC3(CCN(c5ccc([C@@H]6c7ccc(O)cc7CC[C@@H]6c6ccccc6)cc5)CC3)C2)C4)C(=O)N1 (mixture of isomers) [E 4, rac-3-(6-(2-(8-(4-((1R,2S)-6-hydroxy-2-phenyl-1,2,3,4-tetrahydronaphthalen-1-yl)phenyl)-2,8-diazaspiro[4.5]decan-2-yl)-2-oxoethyl)-1-oxo-3,5,6,7-tetrahydropyrrolo[3,4-f]isoindol-2(1H)-yl)piperidine-2,6-dione]
- DC50 [1]: 10 to 100 nM

Compound: O=C1CCC(N2C(=O)c3cc4c(cc3C2=O)CN(CC2(F)CCN(CC3CN(c5ccc([C@@H]6c7ccc(O)cc7CC[C@@H]6c6ccccc6)cc5)C3)CC2)C4)C(=O)N1 (stereo partly drawn) [E245, 2-(2,6-dioxopiperidin-3-yl)-6-((4-fluoro-1-((1-(4-((1R,2S)-6-hydroxy-2-phenyl-1,2,3,4-tetrahydronaphthalen-1-yl)phenyl)azetidin-3-yl)methyl)piperidin-4-yl)methyl)-6,7-dihydropyrrolo[3,4-f]isoindole-1,3(2H,5H)-dione]
- DC50 [1]: > 100 nM

Compound: O=C1CCC(N2C(=O)c3cc4c(cc3C2=O)CN(CC(=O)N2CCC3(CC2)CCN(c2ccc([C@H]5c6ccc7[nH]ncc7c6CC[C@H]5c5ccccc5)cc2)CC3)C4)C(=O)N1 (stereo partly drawn) [E 422, 2-(2,6-dioxopiperidin-3-yl)-6-(2-oxo-2-(9-(4-((6S,7R)-7-phenyl-6,7,8,9-tetrahydro-3H-benzo[e]indazol-6-yl)phenyl)-3,9-diazaspiro[5.5]undecan-3-yl)ethyl)-6,7-dihydropyrrolo[3,4-f]isoindole-1,3(2H,5H)-dione]
- DC50 [2]: > 100 nM

Compound: C[C@@H]1Cc2c(ccc3[nH]ncc23)[C@@H](c2c(F)cc(N3CCC(C(=O)N4C5CCC4CC(N4Cc6cc7c(cc6C4)C(=O)N(C4CCC(=O)NC4=O)C7=O)C5)CC3)cc2F)N1CC(F)F (some centres unmarked) [E 469]
- DC50 [2]: 10 to 100 nM

Compound: C[C@@H]1Cc2cc(O)ccc2[C@H](c2ccc(C(=O)N3CC4(CCN(C(=O)CN5Cc6cc7c(cc6C5)C(=O)N(C5CCC(=O)NC5=O)C7=O)CC4)C3)cc2)N1CC(F)F (stereo partly drawn) [E 460, 6-(2-(2-(4-((1S,3R)-2-(2,2-difluoroethyl)-6-hydroxy-3-methyl-1,2,3,4-tetrahydroisoquinolin-1-yl)benzoyl)-2,7-diazaspiro[3.5]nonan-7-yl)-2-oxoethyl)-2-(2,6-dioxopiperidin-3-yl)-6,7-dihydropyrrolo[3,4-f]isoindole-1,3(2H,5H)-dione]
- DC50 [2]: 10 to 100 nM

Compound: O=C1CCC(N2C(=O)c3cc4c(cc3C2=O)CN(CC(=O)N2CCC(n3cc(-c5ccc([C@@H]6c7ccc(O)cc7CC[C@@H]6c6ccccc6)cc5)cn3)CC2)C4)C(=O)N1 (stereo partly drawn) [E 214, 2-(2,6-dioxopiperidin-3-yl)-6-(2-(4-(4-(4-((1R,2S)-6-hydroxy-2-phenyl-1,2,3,4-tetrahydronaphthalen-1-yl)phenyl)-1H-pyrazol-1-yl)piperidin-1-yl)-2-oxoethyl)-6,7-dihydropyrrolo[3,4-f]isoindole-1,3(2H,5H)-dione]
- DC50 [1]: > 100 nM

Compound: C[C@H]1CC2(CCN(c3ccc([C@@H]4c5ccc(O)cc5CC[C@@H]4c4ccccc4)cc3)CC2)CN1CC(=O)N1Cc2cc3c(cc2C1)C(=O)N(C1CCC(=O)NC1=O)C3=O (mixture of isomers) [E 151, Rac-2-(2,6-dioxopiperidin-3-yl)-6-(2-((S)-8-(4-((1R,2S)-6-hydroxy-2-phenyl-1,2,3,4-tetrahydronaphthalen-1-yl)phenyl)-3-methyl-2,8-diazaspiro[4.5]decan-2-yl)acetyl)-6,7-dihydropyrrolo[3,4-f]isoindole-1,3(2H,5H)-dione]
- DC50 [1]: > 100 nM

Compound: O=C1CCC(N2C(=O)c3cc4c(cc3C2=O)CC2(C4)CN(C(=O)CN3CC(Oc4ccc([C@@H]5c6ccc(O)cc6CC[C@@H]5c5ccccc5)cc4)C3)C2)C(=O)N1 (stereo partly drawn) [E 502, 2′-(2,6-dioxopiperidin-3-yl)-1-(2-(3-(4-((1R,2S)-6-hydroxy-2-phenyl-1,2,3,4-tetrahydronaphthalen-1-yl)phenoxy)azetidin-1-yl)acetyl)-5′,7′-dihydro-1′H-spiro[azetidine-3,6′-cyclopenta[f]isoindole]-1′,3′(2′H)-dione]
- DC50 [2]: > 100 nM

Compound: C[C@@H]1Cc2c([nH]c3ccccc23)[C@@H](c2cnc(N3CCC4(CC3)CC(CN3Cc5cc6c(cc5C3)C(=O)N(C3CCC(=O)NC3=O)C6=O)C4)nc2)N1CC(F)F (stereo partly drawn) [E 474, 6-((7-(5-((1R,3R)-2-(2,2-difluoroethyl)-3-methyl-2,3,4,9-tetrahydro-1H-pyrido[3,4-b]indol-1-yl)pyrimidin-2-yl)-7-azaspiro[3.5]nonan-2-yl)methyl)-2-(2,6-dioxopiperidin-3-yl)-6,7-dihydropyrrolo[3,4-f]isoindole-1,3(2H,5H)-dione]
- DC50 [2]: 10 to 100 nM

Compound: O=C1CCC(N2C(=O)c3cc4c(cc3C2=O)CN(C(=O)CN2CCC3(CC2)CCN(c2ccc([C@@H]5c6ccc(O)cc6CC[C@@H]5c5ccccc5)cc2)C3)C4)C(=O)N1 (mixture of isomers) [E 141, Rac-2-(2,6-dioxopiperidin-3-yl)-6-(2-(2-(4-((1R,2S)-6-hydroxy-2-phenyl-1,2,3,4-tetrahydronaphthalen-1-yl)phenyl)-2,8-diazaspiro[4.5]decan-8-yl)acetyl)-6,7-dihydropyrrolo[3,4-f]isoindole-1,3(2H,5H)-dione]
- DC50 [1]: > 100 nM

Compound: O=C1CCC(N2C(=O)c3cc4c(cc3C2=O)CN(CC(=O)N2CCC3(CCC(Oc5ccc([C@@H]6c7ccc(O)cc7CC[C@@H]6c6ccccc6)cc5)CC3)CC2)C4)C(=O)N1 (stereo partly drawn) [E 224, 2-(2,6-dioxopiperidin-3-yl)-6-(2-(9-(4-((1R,2S)-6-hydroxy-2-phenyl-1,2,3,4-tetrahydronaphthalen-1-yl)phenoxy)-3-azaspiro[5.5]undecan-3-yl)-2-oxoethyl)-6,7-dihydropyrrolo[3,4-f]isoindole-1,3(2H,5H)-dione]
- DC50 [1]: > 100 nM

Compound: C[C@@H]1Cc2c([nH]c3ccccc23)[C@@H](c2ccc(N3CCC4(CCN(C(=O)CN5Cc6cc7c(cc6C5)C(=O)N(C5CCC(=O)NC5=O)C7=O)CC4)CC3)cn2)N1CC(F)F (stereo partly drawn) [E 280, 6-(2-(9-(6-((1S,3R)-2-(2,2-difluoroethyl)-3-methyl-2,3,4,9-tetrahydro-1H-pyrido[3,4-b]indol-1-yl)pyridin-3-yl)-3,9-diazaspiro[5.5]undecan-3-yl)-2-oxoethyl)-2-(2,6-dioxopiperidin-3-yl)-6,7-dihydropyrrolo[3,4-f]isoindole-1,3(2H,5H)-dione]
- DC50 [1]: > 100 nM

Compound: O=C1CCC(N2C(=O)c3cc4c(cc3C2=O)CN(CC(=O)N2CC3(CC(Oc5ccc([C@@H]6c7ccc(O)cc7CC[C@H]6c6ccccc6)cc5)C3)C2)C4)C(=O)N1 (stereo partly drawn) [E 221, 2-(2,6-dioxopiperidin-3-yl)-6-(2-(6-(4-((1R,2R)-6-hydroxy-2-phenyl-1,2,3,4-tetrahydronaphthalen-1-yl)phenoxy)-2-azaspiro[3.3]heptan-2-yl)-2-oxoethyl)-6,7-dihydropyrrolo[3,4-f]isoindole-1,3(2H,5H)-dione]
- DC50 [1]: > 100 nM

Reference: patent US20240190880A1 (THE REGENTS OF THE UNIVERSITY OF MICHIGAN, priority 2021, published 2024)
